IC50 data for 19 compounds are collected here from US20140288044A1, “COMPOSITIONS AND THERAPEUTIC USES OF IKK-RELATED KINASE EPSILON AND TANKBINDING KINASE 1 INHIBITORS” (Alzheimer's Institute of America, Inc., priority 2011, published 2014).

As a reminder, the IC50 is the point on the concentration scale where inhibition reaches its midpoint.

Each structure is given as a SMILES string. Where two headings read alike, the source gives them in different places.

For test [1], the target named is T1, IKKε (Homo sapiens, UniProt Q14164).
T1 construct: His-tag (in-house Sf9 preparation) or GST-tag (purchased Invitrogen preparation); these are alternatives, not both on one protein; host or cells: Sf9 cells
T1 sequence (Q14164 1-716): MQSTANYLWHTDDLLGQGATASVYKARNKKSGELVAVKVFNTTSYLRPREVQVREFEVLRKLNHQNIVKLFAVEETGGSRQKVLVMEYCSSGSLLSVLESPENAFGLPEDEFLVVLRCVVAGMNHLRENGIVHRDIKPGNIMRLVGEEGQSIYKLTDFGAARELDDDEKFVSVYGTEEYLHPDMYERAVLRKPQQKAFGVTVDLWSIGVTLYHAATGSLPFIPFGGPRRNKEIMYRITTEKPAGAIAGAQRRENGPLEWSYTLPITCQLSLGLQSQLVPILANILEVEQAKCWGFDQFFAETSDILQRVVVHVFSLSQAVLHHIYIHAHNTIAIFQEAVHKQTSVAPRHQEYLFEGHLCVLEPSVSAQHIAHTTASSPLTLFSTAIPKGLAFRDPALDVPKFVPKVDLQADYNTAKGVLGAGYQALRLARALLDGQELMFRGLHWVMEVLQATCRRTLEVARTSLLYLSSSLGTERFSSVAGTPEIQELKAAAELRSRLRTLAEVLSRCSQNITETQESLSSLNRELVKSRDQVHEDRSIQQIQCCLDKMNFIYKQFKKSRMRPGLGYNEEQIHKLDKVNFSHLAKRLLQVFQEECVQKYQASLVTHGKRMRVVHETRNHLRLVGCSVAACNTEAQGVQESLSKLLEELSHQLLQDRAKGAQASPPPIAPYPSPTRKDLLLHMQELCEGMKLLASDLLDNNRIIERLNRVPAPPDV
Briefly: In-vitro IKKε kinase assay (radiolabelled ATP, filterplate). It is filed as biochemical. The method, boiled down:
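His-tagged IKKε from Sf9 cells or GST-tagged IKKε, with myelin basic protein, casein or dephosphorylated casein as substrate and 32 μM ATP (2× Km) plus [γ^33]ATP. "Normal" assay used 0.1 μg/ml enzyme; "sensitized" used 0.015 μg/ml with dephosphorylated casein only. Stopped after 30–45 min with phosphoric acid; P-81 filter counts normalized to DMSO after background subtraction.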

Test [2] relates to IKKε-mediated phosphorylation of IRF3. Briefly: ELISA for in-situ phosphorylation of IRF3 (phospho-Ser396) in HEK293T cells cotransfected with IRF3 and IKKε. As to conditions: Homo sapiens, HEK-293T, 20 h, HEK293T cells, 20 hours, read-out: IC50, in-situ IKKε-mediated phosphorylation of IRF3. It is filed as cell-based. The method, boiled down:
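HEK293T cells cotransfected with IRF3 and IKKε were treated with compound for 20 h, and lysates were assayed by ELISA for phospho-Ser396 IRF3, normalized to DMSO. Viability was checked in parallel by CellTiter-Glo. For TBK1, cells cotransfected with IRF7 and TBK1 were treated overnight and probed by Western blot for phospho-Ser477/Ser479 IRF7.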

[3] abbreviates: "sensitized" assay, read-out: IC50, inhibition of the kinase activity of IKKε.
Setting [4] is: in-vitro IKKε kinase inhibition assays, given as 0.005 μM (5 nM), read-out: IKKε kinase inhibitory activity (IC50 value).
Setting [5] is: range given from about 1 μM to about 250 nM.

In the case of `N#Cc1cc(-c2ccnc(Nc3ccc(C4CC4)nc3)n2)ccc1OC1CCOCC1` [Example Compound 4, 5-{2-[(6-Cyclopropylpyridin-3-yl)amino]pyrimidin-4-yl}-2-(tetrahydro-2H-pyran-4-yloxy)benzonitrile], the IC50 in test [1] (setting [3]) was under 5 nM; in test [1] (setting [4]), under 5 nM; in test [2], under 100 nM.
For `N#Cc1cc(-c2ccnc(Nc3ccc(N4CCCC4)nc3)n2)ccc1OC1CCOCC1` [Example Compound 5, 5-(2-{[6-(Pyrrolidin-1-yl)pyridin-3-yl]amino}pyrimidin-4-yl)-2-(tetrahydro-2H-pyran-4-yloxy)benzonitrile], the half-maximal inhibitory concentration (IC50) in test [1] (setting [3]) is under 5 nM; in test [1] (setting [4]) it was under 5 nM; in test [2], 100 to 250 nM.
Regarding `Cc1ccc(Nc2nccc(-c3ccc(OC4CCOCC4)c(C#N)c3)n2)cn1` [Example Compound 7, 5 5-{2-[(6-Methylpyridin-3-yl)amino]pyrimidin-4-yl}-2-(tetrahydro-2H-pyran-4-yloxy)benzonitrile], the values for the IC50 in test [1] (setting [3]), in test [1] (setting [4]) and in test [2] were under 5 nM, under 5 nM and 100 to 250 nM, respectively.
For `CCOc1ccc(Nc2nccc(-c3ccc(OC4CCOCC4)c(C#N)c3)n2)cn1` [Example Compound 8, 5-{2-[(6-Ethoxypyridin-3-yl)amino]pyrimidin-4-yl}-2-(tetrahydro-2H-pyran-4-yloxy)benzonitrile], the results for the concentration for half-maximal inhibition (IC50) in test [1] (setting [3]), in test [1] (setting [4]) and in test [2] (setting [5]) were under 5 nM, under 5 nM and 250 to 1000 nM, respectively.
On to `CNC(=O)c1cncc(Nc2nccc(-c3ccc(OC4CCOCC4)c(C#N)c3)n2)c1` [Example Compound 12, 5-({4-[3-Cyano-4-(tetrahydro-2H-pyran-4-yloxy)phenyl]pyrimidin-2-yl}amino)-N-methylpyridine-3-carboxamide], for which the IC50 is under 5 nM in test [1] (setting [3]), under 5 nM in test [1] (setting [4]) and 1000 to 5000 nM in test [2].
In the case of `COCCNC(=O)c1cncc(Nc2nccc(-c3ccc(OC4CCOCC4)c(C#N)c3)n2)c1` [Example Compound 15, 5-({4-[3-Cyano-4-(tetrahydro-2H-pyran-4-yloxy)phenyl]pyrimidin-2-yl}amino)-N-(2-methoxyethyl)pyridine-3-carboxamide], the values for the IC50 in test [1] (setting [3]), in test [1] (setting [4]) and in test [2] (setting [5]) were under 5 nM, under 5 nM and 250 to 1000 nM, respectively.
Take `COC1CN(Cc2cncc(Nc3nccc(-c4ccc(OC5CCOCC5)c(C#N)c4)n3)c2)C1` [Example Compound 23, 5-[2-({5-[(3-Methoxyazetidin-1-yl)methyl]pyridin-3-yl}amino)pyrimidin-4-yl]-2-(tetrahydro-2H-pyran-4-yloxy)benzonitrile]: the 50% inhibitory concentration (IC50) in test [1] (setting [3]) is under 5 nM; in test [1] (setting [4]) it was under 5 nM; in test [2] (setting [5]), 250 to 1000 nM.
Take `N#Cc1cc(-c2ccnc(Nc3ccc(C(=O)N4CCCC4)nc3)n2)ccc1OC1CCOCC1` [Example Compound 29, 5-(2-{[6-(Pyrrolidin-1-ylcarbonyl)pyridin-3-yl]amino}pyrimidin-4-yl)-2-(tetrahydro-2H-pyran-4-yloxy)benzonitrile]: the values for the IC50 in test [1] (setting [3]), in test [1] (setting [4]) and in test [2] were under 5 nM, under 5 nM and 100 to 250 nM, respectively.
Turning to `N#Cc1cc(-c2ccnc(Nc3ccc(C(=O)N4CC(O)C4)nc3)n2)ccc1OC1CCOCC1` [Example Compound 32, 5-[2-({6-[(3-Hydroxyazetidin-1-yl)carbonyl]pyridin-3-yl}amino)pyrimidin-4-yl]-2-(tetrahydro-2H-pyran-4-yloxy)benzonitrile], the IC50 in test [1] (setting [3]) is under 5 nM; in test [1] (setting [4]) it was under 5 nM; in test [2] (setting [5]) it was 250 to 1000 nM.
Turning to `N#Cc1cc(-c2ccnc(Nc3ccncc3)n2)ccc1OC1CCOCC1` [Example Compound 34, 5-[2-(Pyridin-4-ylamino)pyrimidin-4-yl]-2-(tetrahydro-2H-pyran-4-yloxy)benzonitrile], the IC50 in test [1] (setting [3]) is under 5 nM; in test [1] (setting [4]), under 5 nM; in test [2] (setting [5]), 250 to 1000 nM.
Turning to `N#Cc1cc(-c2ccnc(Nc3ccnc(N4CCC[C@@H]4CO)c3)n2)ccc1OC1CCOCC1` [Example Compound 37, 5-[2-({2-[(2R)-2-(Hydroxymethyl)pyrrolidin-1-yl]pyridin-4-yl}amino)pyrimidin-4-yl]-2-(tetrahydro-2H-pyran-4-yloxy)benzonitrile], the IC50 is under 5 nM in test [1] (setting [4]) and 100 to 250 nM in test [2].
With `N#Cc1cc(-c2ccnc(Nc3ccnc(N4CC(O)C4)c3)n2)ccc1OC1CCOCC1` [Example Compound 41, 5-(2-{[2-(3-Hydroxyazetidin-1-yl)pyridin-4-yl]amino}pyrimidin-4-yl)-2-(tetrahydro-2H-pyran-4-yloxy)benzonitrile], the IC50 in test [1] (setting [3]) is under 5 nM; in test [1] (setting [4]), under 5 nM; in test [2], 100 to 250 nM.
Turning to `N#Cc1cc(-c2ccnc(Nc3ccnc(N4CCN(CCO)CC4)c3)n2)ccc1OC1CCOCC1` [Example Compound 42, 5-[2-({2-[4-(2-Hydroxyethyl)piperazin-1-yl]pyridin-4-yl}amino)pyrimidin-4-yl]-2-(tetrahydro-2H-pyran-4-yloxy)benzonitrile], the half-maximal inhibitory concentration (IC50) in test [1] (setting [3]) is under 5 nM; in test [1] (setting [4]), under 5 nM; in test [2], under 100 nM.
With `COC1CN(c2cc(Nc3nccc(-c4ccc(OC5CCOCC5)c(C#N)c4)n3)ccn2)C1` [Example Compound 43, 5-(2-{[2-(3-Methoxyazetidin-1-yl)pyridin-4-yl]amino}pyrimidin-4-yl)-2-(tetrahydro-2H-pyran-4-yloxy)benzonitrile], the concentration for half-maximal inhibition (IC50) in test [1] (setting [3]) was under 5 nM; in test [1] (setting [4]), under 5 nM; in test [2], under 100 nM.
Turning to `N#Cc1cc(-c2ccnc(Nc3ccnc(N4CCOCC4)c3)n2)ccc1OC1CCOCC1` [Example Compound 44, 5-(2-{[2-(Morpholin-4-yl)pyridin-4-yl]amino}pyrimidin-4-yl)-2-(tetrahydro-2H-pyran-4-yloxy)benzonitrile], the 50% inhibitory concentration (IC50) in test [1] (setting [3]) was under 5 nM; in test [1] (setting [4]), under 5 nM; in test [2], under 100 nM.
Take `COCCOC1CN(c2cc(Nc3nccc(-c4ccc(OC5CCOCC5)c(C#N)c4)n3)ccn2)C1` [Example Compound 45, 5-[2-({2-[3-(2-Methoxyethoxy)azetidin-1-yl]pyridin-4-yl}amino)pyrimidin-4-yl]-2-(tetrahydro-2H-pyran-4-yloxy)benzonitrile]: the IC50 in test [1] (setting [3]) was under 5 nM; in test [1] (setting [4]) it was under 5 nM; in test [2], 100 to 250 nM.
Turning to `CNCc1ccc(Nc2nccc(-c3ccc(OC4CCOCC4)c(C#N)c3)n2)cn1` [Example Compound 52, 5-[2-({6-[(Methylamino)methyl]pyridin-3-yl}amino)pyrimidin-4-yl]-2-(tetrahydro-2H-pyran-4-yloxy)benzonitrile], the IC50 in test [1] (setting [3]) is under 5 nM; in test [1] (setting [4]), under 5 nM; in test [2] (setting [5]), 250 to 1000 nM.
Regarding `COC1CN(c2cc(Nc3nccc(-c4ccc(NC(=O)C(C)C)c(C#N)c4)n3)ccn2)C1` [Example Compound 247, N-[2-Cyano-4-(2-{[2-(3-methoxyazetidin-1-yl)pyridin-4-yl]amino}pyrimidin-4-yl)phenyl]-2-methylpropanamide], the 50% inhibitory concentration (IC50) in test [2] (setting [5]) lay in the range of 250 to 1000 nM.
Take `C[C@H](O)C(=O)N1CCC(Oc2ccc(-c3ccnc(Nc4ccc(N5CC(O)C5)nc4)n3)cc2C#N)CC1` [Example Compound 253, 5-(2-{[6-(3-Hydroxyazetidin-1-yl)pyridin-3-yl]amino}pyrimidin-4-yl)-2-({1-[(2S)-2-hydroxypropanoyl]piperidin-4-yl}oxy)benzonitrile]: in test [2], the IC50 lay within 1000 to 5000 nM.
